From ChEMBL document CHEMBL1141733, “Cardiovascular effects of aspidofractinine-type alkaloids from Kopsia” (1998)
Activity calls are given as the source filed them. The rule behind the calls is not given here.

Experiments:
Rattus norvegicus [1] = assay: Antihypertensive activity in anesthetized SHR rat assessed as decrease in heart rate at 2 mg/kg, iv; format: functional, organism-based; design: dose 2 mg/kg
Rattus norvegicus [2] = assay: Increase in basal mean arterial blood pressure anesthetized SHR rat at 2 mg/kg, iv; format: functional, organism-based; design: dose 2 mg/kg
Rattus norvegicus [3] = assay: Increase in basal mean arterial blood pressure anesthetized SHR rat at 0.5 mg/kg, iv; format: functional, organism-based; design: dose 0.5 mg/kg
Rattus norvegicus [4] = assay: Antihypertensive activity in anesthetized SHR rat assessed as decrease in heart rate at 1 mg/kg, iv; format: functional, organism-based; design: dose 1 mg/kg
Rattus norvegicus [5] = assay: Increase in basal mean arterial blood pressure anesthetized SHR rat at 5 mg/kg, iv; format: functional, organism-based; design: dose 5 mg/kg
Rattus norvegicus [6] = assay: Antihypertensive activity in anesthetized SHR rat assessed as decrease in heart rate at 0.5 mg/kg, iv; format: functional, organism-based; design: dose 0.5 mg/kg
Rattus norvegicus [7] = assay: Increase in basal mean arterial blood pressure anesthetized SHR rat at 1 mg/kg, iv; format: functional, organism-based; design: dose 1 mg/kg
Rattus norvegicus [8] = assay: Antihypertensive activity in iv dosed anesthetized SHR rat assessed as concomitant fall in heart rate; format: functional, organism-based
Rattus norvegicus [9] = assay: Antihypertensive activity in anesthetized SHR rat assessed as decrease in heart rate at 0.2 mg/kg, iv; format: functional, organism-based; design: dose 0.2 mg/kg
Rattus norvegicus [10] = assay: Increase in basal mean arterial blood pressure anesthetized SHR rat at 10 mg/kg, iv; format: functional, organism-based; design: dose 10 mg/kg
Rattus norvegicus [11] = assay: Antihypertensive activity in iv dosed anesthetized SHR rat assessed as decrease in basal mean arterial blood pressure; format: functional, organism-based; settings: Artery
Rattus norvegicus [12] = assay: (§1) Antihypertensive activity in anesthetized SHR rat assessed as decrease in heart rate at 10 mg/kg, iv; format: functional, organism-based; design: dose 10 mg/kg
Rattus norvegicus [13] = assay: Antihypertensive activity in anesthetized SHR rat assessed as decrease in heart rate at 5 mg/kg, iv; format: functional, organism-based; design: dose 5 mg/kg
Rattus norvegicus [14] = assay: Increase in basal mean arterial blood pressure anesthetized SHR rat at 0.2 mg/kg, iv; format: functional, organism-based; design: dose 0.2 mg/kg
Rattus norvegicus [15] = assay: Antihypertensive activity in anesthetized SHR rat assessed as decrease in basal mean arterial blood pressure at 10 mg/kg, iv pretreated with hexamethonium for 10 mins; format: functional, organism-based; design: dose 10 mg/kg; settings: Artery
Rattus norvegicus [16] = assay: Antihypertensive activity in anesthetized SHR rat assessed as decrease in heart rate at 10 mg/kg, iv pretreated with hexamethonium for 10 mins; format: functional, organism-based; design: dose 10 mg/kg
Rattus norvegicus [17] = assay: Antihypertensive activity in anesthetized SHR rat assessed as heart rate at 2 mg/kg, iv after 10 mins; format: functional
Rattus norvegicus [18] = assay: Antihypertensive activity in anesthetized SHR rat assessed as decrease in heart rate at 2 mg/kg, iv after 24 to 26 seconds; format: functional
Rattus norvegicus [19] = assay: Antihypertensive activity in anesthetized SHR rat assessed as decrease in basal mean arterial blood pressure at 2 mg/kg, iv after 24 to 26 seconds; format: functional, Artery
Rattus norvegicus [20] = assay: Antihypertensive activity in anesthetized SHR rat assessed as basal mean arterial blood pressure at 2 mg/kg, iv after 10 mins; format: functional, Artery
Rattus norvegicus [21] = assay: as §1; format: functional
Rattus norvegicus [22] = assay: Antihypertensive activity in anesthetized SHR rat assessed as decrease in basal mean arterial blood pressure at 10 mg/kg, iv; format: functional, Artery
Rattus norvegicus [23] = assay: Antihypertensive activity in anesthetized SHR rat assessed as decrease in basal mean arterial blood pressure at 10 mg/kg, iv pretreated with phentolamine for 10 mins; format: functional, Artery
Rattus norvegicus [24] = assay: Antihypertensive activity in anesthetized SHR rat assessed as decrease in heart rate at 10 mg/kg, iv pretreated with phentolamine for 10 mins; format: functional
Rattus norvegicus [25] = assay: Antihypertensive activity in anesthetized SHR rat assessed as decrease in basal mean arterial blood pressure at 20 mg/kg, iv after 10 mins; format: functional, Artery
Rattus norvegicus [26] = assay: Antihypertensive activity in anesthetized SHR rat assessed as decrease in basal mean arterial blood pressure at 20 mg/kg, iv after 1 to 1.5 mins; format: functional, Artery
Rattus norvegicus [27] = assay: Antihypertensive activity in anesthetized SHR rat assessed as decrease in heart rate at 20 mg/kg, iv after 1 to 1.5 mins; format: functional
Rattus norvegicus [28] = assay: Antihypertensive activity in anesthetized SHR rat assessed as decrease in heart rate at 20 mg/kg, iv after 10 mins; format: functional
Rattus norvegicus [29] = assay: Antihypertensive activity in anesthetized SHR rat assessed as hypotensive response lasting time at 10 mg/kg, iv; format: functional
Rattus norvegicus [30] = assay: Antihypertensive activity in iv dosed anesthetized WKY rat assessed as hypotensive activity; format: functional, organism-based
Rattus norvegicus [31] = assay: Antihypertensive activity in anesthetized SHR rat assessed as decrease in basal mean arterial blood pressure at 10 mg/kg, iv pretreated with atropine for 10 mins; format: functional, Artery
Rattus norvegicus [32] = assay: Antihypertensive activity in anesthetized SHR rat assessed as decrease in heart rate at 10 mg/kg, iv pretreated with atropine for 10 mins; format: functional
Rattus norvegicus [33] = assay: Antihypertensive activity in anesthetized SHR rat assessed as decrease in basal mean arterial blood pressure at 3 mg/kg, iv after 10 mins; format: functional, Artery
Rattus norvegicus [34] = assay: Antihypertensive activity in anesthetized SHR rat assessed as decrease in heart rate at 3 mg/kg, iv after 10 mins; format: functional
Rattus norvegicus [35] = assay: Antihypertensive activity in anesthetized SHR rat assessed as increase in heart rate at 3 mg/kg, iv; format: functional
Rattus norvegicus [36] = assay: Antihypertensive activity in anesthetized SHR rat assessed as decrease in basal mean arterial blood pressure at 3 mg/kg, iv; format: functional, Artery

COC(=O)N1c2c(OC)cccc2[C@@]23CCN4[C@@H]5C[C@@H](OC)[C@]6(CC[C@]12[C@](O)(C(=O)OC)[C@H]6O5)[C@H]43
Activity (Rattus norvegicus [1]): Active | Activity (Rattus norvegicus [2]): Active | Activity (Rattus norvegicus [3]): Active | Activity (Rattus norvegicus [4]): Active | Activity (Rattus norvegicus [5]): Active | Activity (Rattus norvegicus [6]): Active | Activity (Rattus norvegicus [7]): Active | Activity (Rattus norvegicus [8]): Dose-dependent effect | Activity (Rattus norvegicus [9]): Active | Activity (Rattus norvegicus [10]): Active | Activity (Rattus norvegicus [11]): Dose-dependent effect | Activity (Rattus norvegicus [12]): Active | Activity (Rattus norvegicus [13]): Active | Activity (Rattus norvegicus [14]): Active

COC(=O)N1c2c(OC)cccc2[C@@]23CCN4[C@H]5CC[C@]6(CC[C@]12[C@](O)(C(=O)OC)[C@@H]6O5)[C@H]43
Activity (Rattus norvegicus [1]): Active | Activity (Rattus norvegicus [15]): Active | Activity (Rattus norvegicus [2]): Active | Activity (Rattus norvegicus [3]): Active | Activity (Rattus norvegicus [5]): Active | Activity (Rattus norvegicus [6]): Active | Activity (Rattus norvegicus [16]): Active | Activity (Rattus norvegicus [7]): Active | Activity (Rattus norvegicus [8]): Dose-dependent effect | Activity (Rattus norvegicus [9]): Active | Activity (Rattus norvegicus [10]): Active | Activity (Rattus norvegicus [11]): Dose-dependent effect | Activity (Rattus norvegicus [12]): Active | Activity (Rattus norvegicus [13]): Active | Activity (Rattus norvegicus [14]): Active

CN1[C@@H]2CC[C@H]1C[C@@H](OC(=O)C(CO)c1ccccc1)C2 (stereo partly drawn) [ATROPINE]
Activity (Rattus norvegicus [17]): 368 bpm | Activity (Rattus norvegicus [18]): 371 bpm | Activity (Rattus norvegicus [19]): 155.6 mmHg | Activity (Rattus norvegicus [20]): 160.9 mmHg

COC(=O)N1c2c(OC)cccc2[C@@]23CCN4CCC[C@]5(CC[C@]12[C@](O)(C(=O)OC)[C@@H]5O)[C@H]43 [DIHYDROKOPSINGINE]
Activity (Rattus norvegicus [15]): inactive | Activity (Rattus norvegicus [21]): -49.2 bpm | Activity (Rattus norvegicus [22]): -44.7 mmHg | Activity (Rattus norvegicus [16]): inactive | Activity (Rattus norvegicus [8]): Dose-dependent effect | Activity (Rattus norvegicus [23]): 18.2 mmHg | Activity (Rattus norvegicus [24]): -52.5 bpm | Activity (Rattus norvegicus [11]): Dose-dependent effect

C[N+](C)(C)CCCCCC[N+](C)(C)C.[Cl-].[Cl-] [HEXAMETHONIUM CHLORIDE]
Activity (Rattus norvegicus [25]): 104.8 mmHg | Activity (Rattus norvegicus [26]): 92 mmHg | Activity (Rattus norvegicus [27]): 313.6 bpm | Activity (Rattus norvegicus [28]): 296.8 bpm

COC(=O)N1c2ccccc2[C@]23CCN4CC=C[C@@]5(CC[C@@]12[C@@](O)(C(=O)OC)[C@H]5O)[C@@H]43 [KOPSAPORINE]
Activity (Rattus norvegicus [11]): Dose-dependent effect | Activity (Rattus norvegicus [29]): 3.6 min

COC(=O)N1c2c(OC)cccc2[C@@]23CCN4CC=C[C@]5(CC[C@]12[C@](O)(C(=O)OC)[C@@H]5O)[C@H]43 [KOPSINGINE]
Activity (Rattus norvegicus [15]): inactive | Activity (Rattus norvegicus [21]): -101 bpm | Activity (Rattus norvegicus [30]): Dose-dependent effect | Activity (Rattus norvegicus [22]): -68.5 mmHg | Activity (Rattus norvegicus [16]): inactive | Activity (Rattus norvegicus [31]): -51 mmHg | Activity (Rattus norvegicus [8]): Dose-dependent effect | Activity (Rattus norvegicus [32]): -71.5 bpm | Activity (Rattus norvegicus [23]): 30.7 mmHg | Activity (Rattus norvegicus [24]): 66.7 bpm | Activity (Rattus norvegicus [11]): Dose-dependent effect | Activity (Rattus norvegicus [29]): 3.9 min

Cc1ccc(N(CC2=NCCN2)c2cccc(O)c2)cc1 [PHENTOLAMINE]
Activity (Rattus norvegicus [33]): 108.4 mmHg | Activity (Rattus norvegicus [34]): 356.7 bpm | Activity (Rattus norvegicus [35]): 372.5 bpm | Activity (Rattus norvegicus [36]): 106.7 mmHg
